Where two headings read alike, the source gives them in different places.
Tests used:
[1] = test system: 1138L; assay: Monolayer proliferation assay Protocol 1 (propidium iodide); assay type: cell-based, human; details: 4 days, mean of duplicate experiments
Method: (§1) In vitro evaluation of compounds for anticancer activity in a panel of 12 human tumour cell lines in a monolayer proliferation assay were carried out at the Oncotest Testing Facility, Institute for Experimental Oncology, Oncotest GmbH, Freiburg.
(§2) A modified propidium iodide assay was used to assess the effects of the test compound(s) on the growth of twelve human tumor cell lines (Dengler et al, 1995).
(§3) Briefly, cells were harvested from exponential phase cultures by trypsinization, counted and plated in 96 well flat-bottomed microtitre plates at a cell density dependent on the cell line (5-10.000 viable cells/well). […] Each concentration was plated in triplicate. 39-Desmethoxyrapamycin was applied in two concentrations (0.001 mM and 0.01 mM).
(§4) Growth inhibition was expressed as treated/control×100 (% TIC). For active compounds, IC50 & IC70 values were estimated by plotting compound concentration versus cell viability.
(§5) In vitro evaluation of 39-desmethoxyrapamycin for anticancer activity in a panel of 12 human tumour cell lines in a monolayer proliferation assay was carried out as described as Protocol 1 in the general methods above using a modified propidium iodide assay.

[2] = test system: 251L; assay: as above; assay type: cell-based, human; details: 4 days, mean of duplicate experiments
Method: as §1, §2, §3, §4, §5

[3] = test system: A498; assay: as above; assay type: cell-based, human; details: 4 days, mean of duplicate experiments
Method: as §1, §2, §3, §4, §5

[4] = test system: DU145; assay: as above; assay type: cell-based, human; details: 4 days, mean of duplicate experiments
Method: as §1, §2, §3, §4, §5

[5] = test system: H460; assay: as above; assay type: cell-based, human; details: 4 days, mean of duplicate experiments
Method: as §1, §2, §3, §4, §5

[6] = test system: LNCAP; assay: as above; assay type: cell-based, human; details: 4 days, mean of duplicate experiments
Method: as §1, §2, §3, §4, §5

[7] = test system: MCF7; assay: as above; assay type: cell-based, human; details: 4 days, mean of duplicate experiments
Method: as §1, §2, §3, §4, §5

[8] = test system: MDA468; assay: as above; assay type: cell-based, human; details: 4 days, mean of duplicate experiments
Method: as §1, §2, §3, §4, §5

[9] = test system: OVCAR3; assay: as above; assay type: cell-based, human; details: 4 days, mean of duplicate experiments
Method: as §1, §2, §3, §4, §5

[10] = test system: SF268; assay: as above; assay type: cell-based, human; details: 4 days, mean of duplicate experiments
Method: as §1, §2, §3, §4, §5

[11] = test system: panel of 12 human tumour cell lines; assay: Monolayer proliferation assay Protocol 1, mean across the cell lines tested; assay type: cell-based
Method: as §1, §2, §3, §4, §5

[12] = test system: A498; assay: Monolayer assay Protocol 2 (SRB), high MDR-expressing cell lines; assay type: cell-based, human; details: Renal A498, high MDR-expressing, 48 h
Method: (§6) The human tumor cell lines of the National Cancer Institute (NCI) cancer screening panel were grown in RPMI 1640 medium containing 5% fetal bovine serum and 2 mM L-glutamine (Boyd and Paull, 1995). Cells were inoculated into 96 well microtiter plates in 0.1 mL at plating densities ranging from 5,000 to 40,000 cells/well depending on the doubling time of individual cell lines. After cell inoculation, the microtiter plates were incubated at 37° C., 5% CO2, 95% air and 100% relative humidity for 24 h prior to addition of experimental drugs.
(§7) After 24 h, two plates of each cell line were fixed in situ with trichloroacetic acid (TCA), to represent a measurement of the cell population for each cell line at the time of drug addition (Tz). Experimental drugs were solubilized in dimethyl sulfoxide at 400-fold the desired final maximum test concentration and stored frozen prior to use. At the time of drug addition, an aliquot of frozen concentrate was thawed and diluted to twice the desired final maximum test concentration with complete medium containing 0.05 mg/mL gentamicin. Additional four, 10-fold or ½ log serial dilutions were made to provide a total of five drug concentrations plus control. Aliquots of 0.1 mL of these different drug dilutions were added to the appropriate microtiter wells already containing 0.1 mL of medium, resulting in the required final drug concentrations.
(§8) Following drug addition, the plates were incubated for an additional 48 h at 37° C., 5% CO2, 95% air, and 100% relative humidity. For adherent cells, the assay was terminated by the addition of cold TCA. Cells were fixed in situ by the gentle addition of 0.05 mL of cold 50% (w/v) TCA (final concentration, 10% TCA) and incubated for 60 minutes at 4° C. The supernatant was discarded, and the plates were washed five times with tap water and air dried. Sulforhodamine B (SRB) solution (0.1 mL) at 0.4% (w/v) in 1% acetic acid was added to each well, and plates were incubated for 10 minutes at room temperature. After staining, unbound dye was removed by washing five times with 1% acetic acid and the plates were air dried. Bound stain was subsequently solubilized with 10 mM trizma base, and the absorbance was read on an automated plate reader at a wavelength of 515 nm. […] Using the seven absorbance measurements [time zero, (Tz), control growth, (C), and test growth in the presence of drug at the five concentration levels (Ti)], the percentage growth was calculated at each of the drug concentrations levels. Percentage growth inhibition was calculated as:
(§9) Three dose response parameters were calculated for each experimental agent. […] The drug concentration resulting in total growth inhibition (TGI) was calculated from Ti=Tz. […]

[13] = test system: SF295; assay: as above; assay type: cell-based, human; details: CNS SF295, high MDR-expressing, 48 h
Method: as §6, §7, §8, §9

Row | Compound | Test/Control (%) at drug concentration ([1]; 1 μM) | Test/Control (%) at drug concentration ([1]; 10 μM) | Test/Control (%) at drug concentration ([2]; 1 μM) | Test/Control (%) at drug concentration ([2]; 10 μM) | Test/Control (%) at drug concentration ([3]; A498, 1 μM) | Test/Control (%) at drug concentration ([3]; A498, 10 μM) | Test/Control (%) at drug concentration ([4]; DU145, 1 μM) | Test/Control (%) at drug concentration ([4]; DU145, 10 μM) | Test/Control (%) at drug concentration ([5]; H460, 1 μM) | Test/Control (%) at drug concentration ([6]; 1 μM) | Test/Control (%) at drug concentration ([6]; 10 μM) | Test/Control (%) at drug concentration ([7]; MCF7, 1 μM) | Test/Control (%) at drug concentration ([7]; MCF7, 10 μM) | Test/Control (%) at drug concentration ([8]; MDA468, 1 μM) | Test/Control (%) at drug concentration ([8]; MDA468, 10 μM) | Test/Control (%) at drug concentration ([9]; OVCAR3, 1 μM) | Test/Control (%) at drug concentration ([9]; OVCAR3, 10 μM) | Test/Control (%) at drug concentration ([10]; SF268, 1 μM) | Test/Control (%) at drug concentration ([10]; SF268, 10 μM) | Mean IC70 [11] | also measured
1 | COC1CC2CCC(C)C(O)(O2)C(=O)C(=O)N2CCCCC2C(=O)OC(C(C)CC2CCC(O)CC2)CC(=O)C(C)C=C(C)C(O)C(OC)C(=O)C(C)CC(C)C=CC=CC=C1C (centres unmarked) [39-desmethoxyrapamycin] | 52% | 9.5% | 86% | 32.5% | 62.5% | 43.5% | 65.5% | 44.5% | 71% | 74.5% | 28.5% | 92.5% | 18.5% | 65% | 13.5% | 77.5% | 62% | 57.5% | 23% | 6.95 µM | Test/Control (%) at drug concentration ([5]; H460, 10 μM): 55.5%; IC50 [11]: 3.25 µM; Log GI50 [12]: −7.07; Log GI50 [13]: −5.85
2 | CO[C@H]1C[C@@H]2CC[C@@H](C)[C@@](O)(O2)C(=O)C(=O)N2CCCC[C@H]2C(=O)O[C@H]([C@H](C)C[C@@H]2CC[C@@H](O)[C@H](OC)C2)CC(=O)[C@H](C)/C=C(\C)[C@@H](O)[C@@H](OC)C(=O)[C@H](C)C[C@H](C)/C=C/C=C/C=C/1C [Rapamycin] | 42% | 21.5% | 75.5% | 40% | 58.5% | 48.5% | 50.5% | 54% | 67% | 61% | 34% | 68.5% | 26.5% | 56.5% | 32% | 69% | 69.5% | 53.5% | 46% | 9.1 µM | IC50 ([11]; Homo sapiens): 3.5 µM; GI50 ([12]; Homo sapiens): 0.251 µM; GI50 ([13]; Homo sapiens, SF-295): 0.1 µM
